Test results: patent publication US7807841B2, “Spiro-containing compounds and compositions as modulators of steroid hormone nuclear receptors” (IRM LLC, priority 2005, dated 2010)

Columns and labels:
[1] = biological target: T1, Mineralocorticoid Receptor (MR) (Homo sapiens, UniProt P08235); assay: Functional assay of mineralocorticoid receptor antagonism (Gal4-MR mammalian two hybrid luciferase reporter, 293T cells); assay type: cell-based; details: antagonism of aldosterone (0.4 nM)-induced MR activity
T1 construct: expressed in transfected cells; host or cells: 293T cells (ATCC)
T1 sequence (P08235 672-984): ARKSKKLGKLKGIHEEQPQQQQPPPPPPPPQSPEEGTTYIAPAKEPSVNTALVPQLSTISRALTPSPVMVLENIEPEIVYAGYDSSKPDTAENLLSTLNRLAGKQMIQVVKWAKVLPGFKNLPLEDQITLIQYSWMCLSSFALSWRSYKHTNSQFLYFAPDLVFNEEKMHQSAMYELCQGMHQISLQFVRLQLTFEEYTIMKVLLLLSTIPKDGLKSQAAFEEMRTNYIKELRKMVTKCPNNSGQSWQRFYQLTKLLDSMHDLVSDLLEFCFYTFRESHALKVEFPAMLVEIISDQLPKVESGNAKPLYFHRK
Procedure: The MR antagonist activity of the compounds is determined in a mammalian two hybrid reporter system. The N-terminus of MR (MR-NT, sequence coding amino acid 1-597) is fused to the activation domain of the VP16 gene. The ligand binding domain of MR (MR-LBD, sequence encoding amino acid 672-984) is fused to the DNA binding domain of the yeast Gal4 gene. The MR gene is cloned from a human kidney cDNA library with PCR.
The assay is performed in 384 well plates. Briefly, 293T cells (ATCC) are transfected with expression vectors for Gal-4-MR-LBD and VP16-MR NT, and a luciferase reporter vector containing Gal4 binding sequence (pG5-Luc). Cells are plated in 384 well plates immediately after transfection (approximately 3×10^4 cells/well in 50 μl medium). The medium is supplemented with 3% charcoal-dextran treated fetal bovine serum (Hyclone). Twenty four hours after transfection, compounds prepared in DMSO are transferred to the cells. The cells are then stimulated with 0.4 nM final concentration of aldosterone (Acros) and incubated at 37° C. for another 24 hours before the luciferase activity is assayed with 20 μl of Bright-Glo (Promega) using a luminometer (CLIPR). The expression of luciferase is used as an indicator of aldosterone-induced MR trans-activation. Each compound is tested in duplicates with 12-concentration titration. IC50 values (defined as the concentration of test compound required to antagonize 50% of aldosterone-induced MR activity) are determined from the dose-response curve.

[2] = biological target: T2, Glucocorticoid Receptor (GR) (Homo sapiens, UniProt P04150); assay: Functional assay of glucocorticoid receptor antagonism (Gal4-GR-LBD luciferase reporter, COS-7 cells); assay type: cell-based; details: antagonism of dexamethasone (10 nM)-induced GR activity
T2 construct: expressed in transfected cells; host or cells: COS-7 cells (ATCC)
T2 sequence (P04150 541-778 isoform P04150-3): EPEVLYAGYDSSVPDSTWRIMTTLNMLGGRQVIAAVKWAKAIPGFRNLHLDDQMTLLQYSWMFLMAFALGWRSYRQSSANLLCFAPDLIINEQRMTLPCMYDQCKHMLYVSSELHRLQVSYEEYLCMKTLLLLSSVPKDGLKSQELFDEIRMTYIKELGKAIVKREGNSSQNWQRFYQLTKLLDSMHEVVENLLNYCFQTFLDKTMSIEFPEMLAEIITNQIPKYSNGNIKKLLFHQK
Procedure: The GR antagonist activity of the compounds is determined in a mammalian two hybrid reporter system. The ligand binding domain of GR (GR-LBD, sequence encoding amino acid 541-778) is fused to the DNA binding domain of the yeast Gal4 gene. The GR gene is cloned from a human lung cDNA library with PCR.
The assay is performed in 384 well plates: COS-7 cells (ATCC) are transfected with expression vectors for Gal-4-GR-LBD and a luciferase reporter vector containing Gal4 binding sequence (pG5-Luc). Cells are plated in 384 well plates immediately after transfection (approximately 8000 cells/well in 50 μl medium). The medium is supplemented with 3% charcoal-dextran treated fetal bovine serum (Hyclone). Twenty four hours after transfection, compounds prepared in DMSO are transferred to the cells. The cells are then stimulated with 10 nM final concentration of dexamethasone (Sigma) and incubated at 37° C. for another 24 hours before the luciferase activity is assayed with 20 μl of Bright-Glo (Promega) using a luminometer (CLIPR). The expression of luciferase is used as an indicator of dexamethasone-induced GR trans-activation. Each compound is tested in duplicates with a 12-concentration titration. IC50 values (defined as the concentration of test compound required to antagonize 50% of dexamethasone-induced GR activity) are determined from the dose-response curve.

| IC50 [1] [nM] | IC50 [2] [nM] | Compound |
| --- | --- | --- |
| < 100 | > 10000 | CC12CCC(=O)N1CC1(O2)c2ccccc2CCc2ccccc21 (centres unmarked) [FRS-13] |
| 100 to 1000 | > 10000 | O=C1CCC2(c3ccccc3)OC3(CN12)c1ccccc1C=Cc1ccccc13 (centres unmarked) [FRS-2] |
| 100 to 1000 | > 10000 | CC12CCCC(=O)N1CC1(O2)c2ccccc2C=Cc2ccccc21 (centres unmarked) [FRS-4] |
| < 100 | > 10000 | CC12CCC(=O)N1CC1(O2)c2ccccc2CCc2ccccc21 (single isomer, unassigned) [FRS-13 (Chiral Synthesis)] |
| < 100 | 1000 to 10000 | O=C1CCC2(C3CC3)OC3(CN12)c1ccccc1C=Cc1ccccc13 (centres unmarked) [FRS-10] |
| 100 to 1000 | > 10000 | Oc1ccc(C2=NCC3(O2)c2ccccc2C=Cc2ccccc23)cc1 [OXS-1] |
| 100 to 1000 | > 10000 | CC(=O)N1CC2(OC13CCCCC3)c1ccccc1C=Cc1ccccc12 [SOXS-6] |
| 1000 to 10000 | > 10000 | CC1(C)OC2(CN1C(=O)Nc1ccc(F)cc1F)c1ccccc1C=Cc1ccccc12 [SOXS-1] |
| < 100 | > 10000 | CC1(C)OC2(CN1S(C)(=O)=O)c1ccccc1C=Cc1ccccc12 [SOXS-4] |
| < 100 | 1000 to 10000 | CCCC12CCC(=O)N1CC1(O2)c2ccccc2C=Cc2ccccc21 (centres unmarked) [FRS-9] |

Continued, molecule first:

| Compound | IC50 [1] [nM] | IC50 [2] [nM] |
| --- | --- | --- |
| CC12CCCCC(=O)N1CC1(O2)c2ccccc2C=Cc2ccccc21 (centres unmarked) [FRS-6] | 100 to 1000 | > 10000 |
| CC(=O)N1CC2(OC1(C)C)c1ccccc1C=Cc1ccccc12 [SOXS-3] | 100 to 1000 | 1000 to 10000 |
| O=C1CCC2(c3ccc(F)cc3)OC3(CN12)c1ccccc1C=Cc1ccccc13 (centres unmarked) [FRS-3] | 100 to 1000 | > 10000 |
| CC12CCCC(=O)N1CC1(O2)c2ccccc2CCc2ccccc21 (centres unmarked) [FRS-14] | 100 to 1000 | > 10000 |
| O=C1CCCC2(C(F)(F)F)OC3(CN12)c1ccccc1C=Cc1ccccc13 (centres unmarked) [FRS-11] | < 100 | 1000 to 10000 |
| CC12CCC(=O)N1CC1(O2)c2ccccc2C=Cc2ccccc21 (single isomer, unassigned) [FRS-1 (Chiral Synthesis)] | < 100 | 1000 to 10000 |
| O=C1CCC2(c3cccs3)OC3(CN12)c1ccccc1C=Cc1ccccc13 (centres unmarked) [FRS-8] | < 100 | 1000 to 10000 |
| CC12CCC(=O)N1CC1(O2)c2ccccc2C=Cc2ccccc21 (centres unmarked) [FRS-1] | < 100 | > 10000 |
| COc1ccc(C23CCC(=O)N2CC2(O3)c3ccccc3C=Cc3ccccc32)cc1 (centres unmarked) [FRS-5] | 100 to 1000 | > 10000 |
